In US5786517A, “Metal-ligand complex catalyzed processes” (Union Carbide Chemicals & Plastics Technology Corporation, priority 1996, dated 1998):

Columns and labels:
[1] = Extraction of base from butyraldehyde into equimolar aqueous H3PO3 (Example 5, Table A); assay type: physicochemical
Protocol: The following series of experiments were performed in order to determine the relationship of the pKa of a base to the effectiveness of the base to remain in the organic phase upon contact with an equimolar aqueous acid solution. In all cases the experiments were performed under nitrogen, unless otherwise specified.
Solutions were prepared by dissolving a quantity of acid or base in solvent so that the final concentration was equal to 0.1 moles/liter. The 1×10^-3 moles/liter solutions were prepared by taking an aliquot of the 0.1 moles/liter solution and diluting to the specified concentration. The 1×10^-5 moles/liter solutions were prepared in the same manner as the 1×10^-3 moles/liter solution with the modification of using an aliquot of the 1×10^-3 moles/liter solution in place of the 0.1 moles/liter solution.
In each extraction experiment, 5 milliliters of base solution in butyraldehyde was added to a clean, dry vial. To this vial was added 5 milliliters of equimolar H3 PO3 solution. The resulting mixture was rapidly shaken for several minutes and then allowed to phase separate. A 1 milliliter aliquot of the aqueous layer was then transferred to a clean, dry vial. To this vial was added 1 milliliter of pH 7 sodium/potassium phosphate buffer and 0.1 milliliter of Tergitol® 15-S-9 surfactant. The solution was shaken vigorously, and an aliquot was analyzed by high performance liquid chromatography for base content. The amount of base was then compared with a dichloromethane solution at the initial concentration. The partition coefficients calculated are for partitioning of the base from the organic phase to the water phase and is defined as K=amount of base in the water phase/amount of base in the organic phase.

[2] = Stability of Ligand F in rhodium-containing butyraldehyde solution by HPLC (Examples 2-4)
[3] = Partition of hydroxy butyl phosphonic acid between butyraldehyde and water (Example 1); assay type: physicochemical
Protocol: Into a glass vessel was added a stock solution of 536 parts per million of hydroxy butyl phosphonic acid in butyraldehyde. This solution was contacted with water in a weight ratio of 1.18:1 grams water to grams aldehyde/acid stock solution. The aldehyde and water phase were contacted thoroughly to allow the separation of acid between the organic and the aqueous layer to reach equilibrium. The aldehyde phase was analyzed for hydroxy butyl phosphonic acid by ion chromatography after contact with the water giving 52.3 parts per million of hydroxy butyl phosphonic acid. The water phase was also analyzed by ion chromatography for the acid. The water phase contained 414 parts per million of hydroxy butyl phosphonic acid. The partition coefficient between the water and the butyraldehyde phase was 414/52.3 or 7.92.

[4] = base 1 × 10^-3 moles/liter in butyraldehyde, H3PO3 1 × 10^-3 moles/liter
[5] = base 1 × 10^-5 moles/liter in butyraldehyde, H3PO3 1 × 10^-5 moles/liter
[6] = 536 ppm stock in butyraldehyde, 1.18:1 grams water to grams aldehyde/acid stock, ion chromatography

| K (amount of base in the water phase/amount of base in the organic phase) [1, 4] | K (amount of base in the water phase/amount of base in the organic phase) [1, 5] | Compound | further results |
| --- | --- | --- | --- |
| 0.02 | 0.00 | O=C1CCCN1Cc1ccccc1 [1-benzyl-2-pyrrolidinone] | – |
| – | – | CC(C)(C)c1cc(-c2cc(C(C)(C)C)cc(C(C)(C)C)c2Op2oc3ccccc3c3ccccc3o2)c(Op2oc3ccccc3c3ccccc3o2)c(C(C)(C)C)c1 [Ligand F] | concentration of Ligand F after 24 hours ([2]; 0.017 grams H3PO3 added to 12 gram solution, decreased from 0.39, 24 hours): 0.12 percent by weight; concentration of Ligand F after 72 hours ([2]; 0.017 grams H3PO3 added to 12 gram solution, initially 0.39, 72 hours): 0.04 percent by weight; change in concentration of Ligand F ([2]; after either 24 or 72 hours, 200 ppm rhodium, 0.39 wt% Ligand F in butyraldehyde, no added acid or benzimidazole): No change in the concentration |
| 0.08 | 0.00 | c1ccc2[nH]nnc2c1 [benzotriazole] | – |
| 0.43 | 1.20 | c1ccc2ncccc2c1 [quinoline] | – |
| – | – | hydroxy butyl phosphonic acid | hydroxy butyl phosphonic acid in aldehyde phase after contact with water [3, 6]: 52.3 parts per million; hydroxy butyl phosphonic acid in water phase [3, 6]: 414 parts per million; partition coefficient between the water and the butyraldehyde phase ([3]; water/butyraldehyde, 414/52.3): 7.92 |
